The target in data set [1] is Ba/F3 cells expressing native BCR-ABL (Homo sapiens, UniProt P00519). Put plainly: MTT cell viability assay, Experiment 3. Type of data set: cell-based, murine. The note with it: Mean ± S.E.M, two independent experiments, read-out: IC50 cell viability, Ba/F3 cells Native BCR-ABL. The source says: (§1) This study evaluated the effect of the pure optical isomers on human leukemia cell viability in vitro. […] Two BCR-ABL-positive human leukemia cell lines, K562 and KU812, were used in this study. Besides, Ba/F3 cell transfectants expressing native or T315I BCR-ABL, whose viability is dependent on ectopically expressed BCR-ABL, were also used in this work. Ba/F3 cells expressing BCR-ABL^T315I were used for testing the efficiency of tested compounds on point mutation BCR-ABL^T315I, which cause drug resistance to Imatinib (Gleevec). U937 and JURKAT, two BCR-ABL-negative human leukemia cell lines, were employed to test the selectivity of tested compounds.
(§2) Cells were seeded in 24-well plates, and treated with drugs at corresponding concentrations. Cell viability was measured using a MTT (3-(4,5-dimethylthiazol-2-yl)-2,5-diphenyltetrazolium bromide)-based colorimetric assay with a 96-well plate reader. IC50 values were calculated using the mean of two independent experiments.
Background: Tetrazolium dyes change colour on reduction, which living cells bring about.

In data set [2] the target is Ba/F3 cells expressing BCR-ABL T315I (Homo sapiens, UniProt P00519, T315I, cells depend on it). Put plainly: MTT cell viability assay, Experiment 3. In kind it is cell-based, murine. The note with it: Mean ± S.E.M, two independent experiments, read-out: IC50 cell viability, Ba/F3 cells T315I BCR-ABL.
Source text: as §1, §2

Data set [3] deals with Ba/F3 harboring the T315I mutant isoform of BCR-ABL. Put plainly: BaF3/BCR-ABL T315I mouse xenograft model, Experiment 4. The note with it: oral, 14 days, NOD SCID mice. In kind it is in vivo. The method, then: The murine pro-B cell line Ba/F3 harboring the T315I mutant isoform of BCR-ABL was subcutaneously injected into NOD SCID mice (NOD.CB17-Prkdc^scid/J). […] The tumor volumes in two dimensions and the body weights of the mice were measured three times a week (volume=L×W^2×0.5).

Another data set concerns U937. Put plainly: MTT cell viability assay, Experiment 3. In kind it is cell-based. The note with it: Homo sapiens.
Source text: (§3) This study evaluated the effect of the pure optical isomers on human leukemia cell viability in vitro. Ponatinib was used as the positive control. Two BCR-ABL-positive human leukemia cell lines, K562 and KU812, were used in this study. Besides, Ba/F3 cell transfectants expressing native or T315I BCR-ABL, whose viability is dependent on ectopically expressed BCR-ABL, were also used in this work. Ba/F3 cells expressing BCR-ABL^T315I were used for testing the efficiency of tested compounds on point mutation BCR-ABL^T315I, which cause drug resistance to Imatinib (Gleevec). U937 and JURKAT, two BCR-ABL-negative human leukemia cell lines, were employed to test the selectivity of tested compounds.
as §2

The next data set has as its system KU812. Kind of data set: MTT cell viability assay, Experiment 3. Type of data set: cell-based. The following applies: Homo sapiens.
Source text: as §3, §2

A further data set has as its system JURKAT. Put plainly: MTT cell viability assay, Experiment 3. The note with it: Homo sapiens, read-out: IC50 cell viability, Non-CML leukemia cells JURKAT. In kind it is cell-based.
Source text: as §3, §2

Another data set concerns K562. Put plainly: MTT cell viability assay, Experiment 3. The following applies: Homo sapiens. Type of data set: cell-based.
Source text: as §3, §2

Data set [4] deals with K562 cells. Put plainly: Cell death assay, Experiment 2 (IC50, live cells counted by trypan blue). Type of data set: cell-based. The note with it: Homo sapiens, 48 h. The method, then: K562 cells (2×10^5 cells/ml) were seeded in 24-well cell culture plate and treated with DMSO or agents. After treatment in the presence of DMSO or agents for 48 h, cells were collected by centrifuging at 500 g for 5 minutes, and then cells were resuspended in appropriate volume of PBS. 10 uL of cell suspension was mixed with 10 uL of trypan blue solution and live cells were counted by TC10 (Bio-Rad, Richmond, Calif.).

The test system of data set [5] is K562 cells. Kind of data set: Cell death assay, Experiment 1 (live cells counted by trypan blue). In kind it is cell-based. The note with it: Homo sapiens, 100 nM, 48 hours, read-out: % live cells (vs control).
Where [6] appears, read: U-937, MTT, Mean ± S.E.M, two independent experiments, read-out: IC50 cell viability, Non-CML leukemia cells U937.
The mark [7] stands for this setting: KU812, MTT, Mean ± S.E.M, two independent experiments, read-out: IC50 cell viability, CML leukemia cells KU812.
[8] abbreviates: MTT, Mean ± S.E.M, two independent experiments.
[9] abbreviates: K562, MTT, Mean ± S.E.M, two independent experiments, read-out: IC50 cell viability, CML leukemia cells K562.

6 molecules from patent US9174996B2, “Protein kinase inhibitors” (Astar Biotech LLC, priority 2012, dated 2015) can be followed below.

Where two headings read alike, the source gives them in different places.

The IC50 is the point on the concentration scale where inhibition reaches its midpoint. As for `CN1CCN([C@H]2CC(F)(F)c3cc(NC(=O)c4ccc(Cl)c(C#Cc5cnc6cccnn56)c4)ccc32)CC1` (single isomer, unassigned) [Compound 38-(S)], the figures for the GI50 in data set [1] and in data set [2] were 2.2 ± 0.3 nM and 3.8 ± 0.2 nM, respectively. Also, the “TGI (Tumor growth inhibition)” value in data set [3] (5 mg/kg/day) is given as 81%. For the same molecule, the 50% inhibitory concentration (IC50) with U937 (setting [6]) is above 1000 nM; in the data set on KU812 (setting [7]) it was 0.2 ± 0.1 nM; in the data set with JURKAT (setting [8]), above 1000 nM; with K562 (setting [9]), 0.6 ± 0.1 nM.

For `Cc1ccc(C(=O)Nc2ccc(CN3CCN(C)CC3)c(C(F)(F)F)c2)cc1C#Cc1cnc2cccnn12` [Ponatinib, reference compound], the “TGI (Tumor growth inhibition)” value came out at 75% in [3] (10 mg/kg/day) and 94% in data set [3] (20 mg/kg/day). Also, the concentration for half-maximal inhibition (IC50) came out at 246 ± 12.5 nM in the data set on U937 (U-937, read-out: IC50 cell viability, Non-CML leukemia cells U937); 0.1 ± 0.1 nM with KU812 (KU812, read-out: IC50 cell viability, CML leukemia cells KU812); 295 ± 5 nM in the data set with JURKAT; 0.3 ± 0.1 nM with K562 (K562, read-out: IC50 cell viability, CML leukemia cells K562).

Usually melting point stands for the temperature of the solid-liquid transition. As to `Cc1ccc(C(=O)Nc2ccc3c(c2)C(F)(F)CC3N2CCN(C)CC2)cc1C#Cc1cnc(NC2CC2)nc1` (racemic) [Compound 37, 3-(2-(2-(Cyclopropylamino)pyrimidin-5-yl)ethynyl)-N-(1,1-difluoro-2,3-dihydro-3-(4-methylpiperazin-1-yl)-1H-indan-6-yl)-4-methylbenzamide], the melting point was 95 to 97 °C. Moreover, in the data set on K562 cells [4], the IC50 is 3.4 nM. For the same molecule, the viability at 0.1 µM with K562 cells [5] came out at 4.32%. In [1], the GI50 is 9.3 ± 2.5 nM. Moreover, the GI50 in data set [2] worked out at 40 ± 9.6 nM. In the data set with U937 (setting [6]), the IC50 was found to be 191 ± 3.3 nM. Moreover, in the data set on KU812 (setting [7]), the IC50 came to 0.4 ± 0.1 nM. Besides, the IC50 with JURKAT (setting [8]) is 292 ± 8 nM. For the same molecule, the IC50 with K562 (setting [9]) is 1 ± 0.2 nM.

Take `Cc1ccc(C(=O)Nc2ccc3c(c2)C(F)(F)C[C@@H]3N2CCN(C)CC2)cc1C#Cc1cnc2cccnn12` [Compound 36-(S), (S)-N-(1,1-difluoro-2,3-dihydro-3-(4-methylpiperazin-1-yl)-1H-indan-6-yl)-3-(2-(imidazo[1,2-b]pyridazin-3-yl)ethynyl)-4-methylbenzamide]: the GI50 in data set [1] was determined as 2.1 ± 0.2 nM; in data set [2], 4.7 ± 1.3 nM. For the same molecule, the “TGI (Tumor growth inhibition)” value in data set [3] (10 mg/kg/day) is on record as 105%; in [3] (20 mg/kg/day), 108%. In addition, the IC50 in the data set on U937 (setting [6]) came to 868 ± 88.7 nM; in the data set with KU812 (setting [7]) it was 0.1 ± 0.1 nM; in the data set on JURKAT (setting [8]) it was 851 ± 25.7 nM; in the data set with K562 (setting [9]) it was 0.4 ± 0.1 nM.

Consider `Cc1ccc(C(=O)Nc2ccc3c(c2)C(F)(F)CC3N2CCN(C)CC2)cc1C#Cc1cnc2cccnn12` (racemic) [Compound 36, N-(1,1-difluoro-2,3-dihydro-3-(4-methylpiperazin-1-yl)-1H-indan-6-yl)-3-(2-(imidazo[1,2-b]pyridazin-3-yl)ethynyl)-4-methylbenzamide], for which the half-inhibitory concentration (IC50) was 0.87 nM in the data set on K562 cells [4]; 608 ± 42.2 nM in the data set on U937 (setting [6]); 0.2 ± 0.1 nM in the data set on KU812 (setting [7]); 672 ± 77.6 nM with JURKAT (setting [8]); 0.5 ± 0.1 nM in the data set on K562 (setting [9]). Besides, the viability at 0.1 µM with K562 cells [5] was determined as 9.48%. Moreover, the results for the GI50 in [1] and in data set [2] were 2.7 ± 0.2 nM and 11 ± 0.2 nM, respectively.

Take `Cc1cn(-c2ccc(NC(=O)c3ccc(C)c(C#Cc4cnc5cccnn45)c3)cc2C(F)(F)F)cn1` [Compound 30, 3-(2-(Imidazo[1,2-b]pyridazin-3-yl)ethynyl)-4-methyl-N-(4-(4-methyl-1H-imidazol-1-yl)-3-(trifluoromethyl)-phenyl)benzamide]: the melting point lay within 124 to 126 °C. Moreover, inhibition in the data set on K562 cells [4] was half-maximal at 3.6 nM (IC50). The viability at 0.1 µM in the data set on K562 cells [5] came to 12.6%.
